Experiments:
human ES cell line H9 = assay: Attachment and colony formation of H9 human ES cells on surface modified plates with Rho kinase inhibitors (crystal violet, image analysis); format: cell-based; conditions: H9 on surface modified plates 2, 3, 4 and 13; crystal violet; Y-27632 at 10 μM
Experimental: Human ES cells of the line H9, at passage 40 were maintained in MEF conditioned media on Nunclon Delta™ plates treated with a 1:30 dilution of growth factor reduced Matrigel™, prior to study. Cells were dissociated from the surface for passage by 1 mg/ml collagenase dissociation or by manual scraping.
These cells were then seeded onto surface modified plates 2, 3, 4 and 13 (12-well format) in the presence of increasing amounts one of the following Rho Kinase inhibitors: Y-27632 (from Sigma, St. Louis, Mo. or EMD, San Diego, Calif.), Fasudil (Sigma), or Hydroxyfasudil (Sigma), and maintained for 3 days, each day replacing the media and compound. At the end of day three, media was removed and the plates were stained with Crystal Violet (0.5% in water) to visualize colonies.
It was attempted to determine the optimal dose of Y-27632 to promote cell binding, by treating cells with a range of plating concentrations of Y-27632 for the first day of culture. After the first day in culture cells were treated on subsequent days with a 10 μM concentration of Y-27632. It was observed that the maximal concentration to stimulate attachment and growth of ES cells was 10 μM (FIG. 12) and that this occurred on surface modified plates 2, 3, 4, 13 and CellBIND™ (Corning, Corning, N.Y.).
The effect of treating the cells continuously with a single dose of Y-27632 on attachment and growth was also tested. The cells were dosed with 0, 1, 4, or 10 μM Y-27632 for 4 days. Some binding was observed on surface modified plates without treatment (0 μM), however the optimal concentration to stimulate attachment and growth of ES cells was 10 μM Y-27632 (Table 4) on surface modified plates 2, 3, 4, 13.

HEK293 cells = assay: HEK293 attachment and growth, culture confluence by IncuCyte Plus (Examples 20, 21); format: cell-based, human
Experimental: HEK293 cells were maintained in EMEM (Lonza) containing 10% FBS (Lonza). Cells were passaged at 70-80% confluence using Trypsin/EDTA for dissociation, and seeded at c 2.0×10^4 cells/cm^2 in 75-cm^2 flasks with Nunclon Delta™ surface (Thermo Fisher Scientific, Roskilde, Denmark).
EMEM (500 μl) supplemented with 10% FBS containing 1.0, 5.0, 10, 15 or 20 μM Y-27632 (Sigma Chemical Co.), or 0.4, 1.2, 1.6, 2.4 or 2.8 μM H-1152 (Calbiochem, EMD Chemicals Inc., Darmstadt, Germany) was dispensed in Multidish 24-well plates with either Surface 4 or a non-treated (but gamma irradiated; 25 kGy) polystyrene surface. Another 500 μl of EMEM supplemented with 10% FBS and containing HEK293 cells were added to the wells (2.0×10^4 cells/cm^2). The cultures were placed in an IncuCyte™ Plus (Essen Instruments, Michigan, USA) and incubated at 37° C. in a humidified atmosphere of 5% CO2 in air. The IncuCyte™ Plus is an automated imaging platform, configured to fit inside a CO2 incubator, and designed to provide kinetic, non-invasive live cell imaging by acquiring phase contrast images of the cells at user-defined times and locations within the cultures. The primary metric of the instrument is culture confluence, that is, the fraction of the surface that is covered by cells. The HEK293 cells were incubated for 72 hours without manipulations, and images were collected every two hours at 9 positions in triplicate cultures. Culture confluence was determined using the IncuCyte™ Plus software (v. 3.4.1.25966).
EMEM (1.0 ml) supplemented with 10% FBS containing 0.4, 0.8, 1.2, 1.6, 2.0, 2.4 or 2.8 μM H-1152 was dispensed in Multidish 12-well plates with Surface 4. Another 1.0 ml of EMEM supplemented with […] and containing HEK293 cells were added to the wells (4.0×10^4 cells/cm^2). The cultures were placed in an IncuCyte™ Plus, and incubated at 37° C. in a humidified atmosphere of 5% CO2 in air for 42 hours (images were collected every 6 hours). One ml of culture medium was then removed by pipetting, and 1.0 ml EMEM supplemented with 10% FBS containing 0.2, 0.4, 0.6, 0.8, 1.0, 1.2 and 1.4 μM H-1152 was added. The cultures were placed in the IncuCyte™ Plus again, and images were collected every hour over the following 25 hours. Images were collected at 9 positions in triplicate cultures, and culture confluence was determined using the IncuCyte™ Plus software. Images from the IncuCyte™ Plus collected at specific positions in HEK293 cell cultures grown in the absence or presence of H-1152 (0.6 μM) was retrieved and presented as phase-contrast micrographs for the comparison of HEK293 culture morphology at the following time points: start of incubation (0 hours), just before medium change (42 hours), 1 hour after the medium change (43 hours), and, finally, after 52 hours of incubation.

Row | Compound | attachment of ES cell colonies by day three (human ES cell line H9) | effect of change of 50% of the medium after 42 hours on culture confluence (HEK293 cells; Surface 4, 0.2 μM or 0.4 μM H-1152) | effect of change of 50% of the medium after 42 hours on culture confluence (HEK293 cells; Surface 4, 0.6 μM, 0.8 μM or 1.4 μM H-1152) | attachment and growth of HEK293 cells (HEK293 cells; Surface 4, increasing concentration) | growth and attachment of HEK293 cells (HEK293 cells; non-treated polystyrene surface, 10 μM Y-27632, 0.6-1.2 μM H-1152)
1 | O=S(=O)(c1cccc2cnccc12)N1CCCNCC1 [Fasudil] | some colonies could be observed to attach and grow |  |  |  | 
2 | O=c1[nH]ccc2c(S(=O)(=O)N3CCCNCC3)cccc12 [Hydroxyfasudil] | some colonies could be observed to attach and grow |  |  |  | 
3 | Cc1cncc2cccc(S(=O)(=O)N3CCCNC[C@@H]3C)c12 [Surface H-1152, H-1152] |  | significant reduction in culture confluence | minimal | enhances attachment and growth | slightly enhanced
